One assay deals with Vav (Y174). The assay can be described thus: Immunoblotting of neutrophil lysates, Vav phosphorylation. The format is cell-based, human. The following applies: 0.1 μM fMLF-stimulated neutrophils. As for the experimental part: (§1) Neutrophils incubated with bletinib or DMSO at 37° C. for 5 min were stimulated with 0.1 μM fMLF for 30 s. The proteins were separated from neutrophil lysates through electrophoresis (12% sodium dodecyl sulphate-polyacrylamide gel electrophoresis) and then transferred to nitrocellulose membranes. The target proteins were identified through immunoblotting with specific antibodies against p38, p-p38, Akt, p-Akt S473, ERK, p-ERK, INK, p-JNK, Src, p-SFKs Y416, p-Src Y416, Lyn, p-Lyn (Y396), Fgr, p-Fgr (Y412), Hck, p-Hck (Y410), Btk, p-Btk Y223, Vav, and p-Vav (Y174) as well as with HRP-conjugated secondary anti-rabbit antibody (Cell Signaling Technology). The signal intensity was detected and quantified using the UVP BioSpectrum Imaging System (Analytik Jena, USA).

Assay [1] concerns BALB/c mice. Briefly: LPS-induced mortality model in mice. The following applies: 25 mg/Kg bletinib; LPS 5 mg/Kg; monitored 5 days; log-rank p=0.0085. It is filed as in vivo. How it is done: For the LPS-induced mortality model, mice were intraperitoneally injected with a single 50-μL dose of LPS (from Escherichia coli O111:B4; 5 mg/kg) or 0.9% saline (vehicle alone group). The mice were monitored for 5 days to determine the survival rate.

Assay [2] concerns human neutrophils. The assay can be described thus: Extracellular superoxide anion production in stimulated neutrophils (ferricytochrome c reduction). It is filed as cell-based. As for the experimental part: Extracellular superoxide anion production in activated neutrophils was assessed through the reduction of ferricytochrome c. After incubating them with Ca^2+ (1 mM) and ferricytochrome c (0.5 mg/mL) at 37° C., the isolated human neutrophils (6×10^5 cells/mL) were then incubated with 0.1% DMSO or 0.3-10 μM bletinib for 5 min. The cells were pretreated with cytochalasin B (CB, 1 or 2 μg/mL) for 3 min and stimulated with fMLF, MMK-1, or sodium fluoride (NaF), or directly activated with phorbol-12-myristate-13-acetate (PMA). The change in absorbance at 550 nm was detected continuously using a spectrophotometer (U-3010, Hitachi, Tokyo, Japan), and superoxide anion levels were calculated using a method described previously (Hwang et al., 2003 Mol. Pharmacol. 64(6), 1419-1427).

Another assay has as its target Src (Homo sapiens, UniProt P12931). The assay can be described thus: Cell-free ADP-Glo kinase assay, Src. It is filed as biochemical. The following applies: 1-10 μM bletinib or 0.1-3 μM PP2; 125 μM ATP; concentration-dependent. How it is done:
The kinase activity of SFKs was assessed using an ADP-Glo kinase assay kit (Promega, Fitchburg, USA) according to manufacturer instructions. […] The ADP-Glo reagent was used to end the kinase reaction and remove the remnant ATP; next, the kinase, which converted ADP to ATP, detection reagent was added and incubated for 30 min. Luciferin/luciferase luminescence was determined on an Infinite 200 Pro (Tecan, Switzerland).
Background: ADP-Glo turns the ADP formed in a reaction into a luminescent signal.

The subject of another assay is Btk (Y223). The assay can be described thus: Immunoblotting of neutrophil lysates, Btk phosphorylation. The format is cell-based, human. The settings on record: 0.1 μM fMLF-stimulated neutrophils. As for the experimental part: as §1
For orientation: Immunoblotting shows a protein as a band on a membrane.

Assay [3] in a line: Superoxide scavenging capacity, WST-1 reduction. It is filed as biochemical. The settings on record: WST-1 reduction at 450 nm. As for the experimental part:
FIG. 1 Bletinib suppressed superoxide anion production in stimulated human neutrophils. Neutrophils (6×10^5 cells/mL) were incubated with 0.1% DMSO or […] bletinib for 5 min before activation with stimuli. Superoxide anion production was induced by (A) fMLF, (B) MMK-1, (C) NaF, or (D) PMA and then measured using ferricytochrome c reduction method. (E) Cytotoxicity was assessed using LDH release. (F) Superoxide scavenging capacity of bletinib was assessed in a xanthine/xanthine oxidase cell-free system. WST-1 reduction was measured through spectrophotometry at 450 nm, with 20 U/mL superoxide dismutase as the positive control.

The subject of assay [4] is BALB/c mice. Briefly: LPS-induced ALI model in mice. The following applies: 25 mg/kg intraperitoneal. The format is in vivo. How it is done: A total of 24 male BALB/c mice were randomly divided into four groups (6 mice/group): vehicle alone, bletinib alone, LPS control, and bletinib treatment (bletinib+LPS). The mice were starved overnight and then intraperitoneally injected with 50 μL of bletinib (25 mg/kg) or 50 μL of vehicle (10% DMSO). ALI was induced through intratracheal spraying of 50 μL of LPS (from Escherichia coli O111:B4; 2 mg/kg) or 50 μL of 0.9% saline (in vehicle and bletinib alone group) under general anaesthesia with xylazine (6 mg/kg) and Zoletil 50 (30 mg/kg). Five hours later, mouse lungs were harvested after sacrifice and were frozen for myeloperoxidase (MPO) activity assay; they were also fixed with 10% formalin for histological sectioning and immunofluorescence staining.
The harvested lung tissues were washed with phosphate-buffered saline (PBS) and fixed with 10% formalin for 24 h. The samples were subsequently dehydrated, embedded with paraffin, sliced into 3-μm-thick sections with a microtome, and placed on glass slides. These sections were stained using haematoxylin and eosin (H&E) and corresponding antibodies. Then, images were acquired through light microscopy.
For immunofluorescence staining, tissue sections were incubated with antibodies against H3 (citH3; citrulline R2+R8+R17) and Ly6G at dilutions of 1:800 and 1:200, respectively. Anti-IgG secondary antibodies labelled with a fluorescent dye (Alexa Fluor 488 for citH3 or Alexa Fluor 568 for Ly6G) were used at dilutions of 1:1000 and 1:500, respectively. Immunofluorescence images were acquired through confocal microscopy (LSM 510 Meta, Zeiss).
The mouse lung tissues were suspended in a 0.5% hexadecyltrimethylammonium bromide buffer (pH 6.0) and then homogenised through sonication. To evaluate MPO activity, the MPO substrate buffer (containing PBS, 0.0005% hydrogen peroxide, and 0.2 mg/mL 0-dianisidine hydrochloride) was added to the homogenised tissue, and the light absorbance at 460 nm was detected by spectrophotometry, after which, MPO activity was calculated with reference to the standard curve of human MPO activity.

Assay [5] concerns human neutrophils. Briefly: Intracellular superoxide/ROS production, DHR123 flow cytometry. It is filed as cell-based. The following applies: 0.1-3 μM bletinib; 0.1 μM fMLF; dose-dependent. How it is done: Human neutrophils (2.5×10^6 cells/mL) were labelled using 2 μM dihydrorhodamine 123 (DHR123) at 37° C. for 10 min and then incubated with DMSO or bletinib for 5 min and then stimulated with 0.1 μM fMLF/0.5 μg/mL CB for 15 min. The fluorescence intensity was detected through flow cytometry to evaluate intracellular superoxide anion production of human neutrophils.
Background: A flow cytometer gives signals particle by particle.

Molecules are shown by their SMILES.

The text below walks through data of patent publication US20220339122A1, “METHODS FOR THE TREATMENT OF DISEASES ASSOCIATED WITH DYSREGULATED ACTIVATION AND RECRUITMENT OF NEUTROPHILS” (Chang Gung University, priority 2021, published 2022).

Src, sequence (P12931 whole entry): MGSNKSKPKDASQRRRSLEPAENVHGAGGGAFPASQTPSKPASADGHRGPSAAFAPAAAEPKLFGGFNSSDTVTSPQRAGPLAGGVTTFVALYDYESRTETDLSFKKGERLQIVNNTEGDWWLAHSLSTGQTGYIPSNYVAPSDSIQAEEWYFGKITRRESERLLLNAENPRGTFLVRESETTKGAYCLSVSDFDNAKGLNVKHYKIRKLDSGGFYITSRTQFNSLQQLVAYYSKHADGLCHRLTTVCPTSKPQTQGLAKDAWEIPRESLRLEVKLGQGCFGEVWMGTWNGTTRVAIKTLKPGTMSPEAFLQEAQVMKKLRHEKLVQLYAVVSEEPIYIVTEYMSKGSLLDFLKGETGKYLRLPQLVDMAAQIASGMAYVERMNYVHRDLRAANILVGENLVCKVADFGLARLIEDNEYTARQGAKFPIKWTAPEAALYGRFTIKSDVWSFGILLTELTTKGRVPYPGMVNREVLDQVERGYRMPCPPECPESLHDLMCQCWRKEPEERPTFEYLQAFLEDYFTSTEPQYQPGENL

The IC50 is the concentration at which inhibition is half-maximal. Regarding `COc1cc(O)cc(CCc2c(Cc3ccc(O)cc3)ccc(O)c2Cc2ccc(O)cc2)c1` [bletinib, 3,3′-dihydroxy-2′,6′-bis(p-hydroxybenzyl)-5-methoxybibenzyl], the “phosphorylation of Vav (Y174)” value with Vav (Y174) is listed as “significantly inhibited”. The “survival time of LPS-primed mice” value in the assay with BALB/c mice [1] is “significantly prolonged”. In the assay with human neutrophils [2] (Homo sapiens, Neutrophil, fMLF stimulation, bletinib preincubated 5 min, read-out: superoxide anion produced by fMLF-activated human neutrophils, IC50), the IC50 came out at 620 nM. The “superoxide anion release from neutrophils stimulated by MMK-1” value with human neutrophils [2] (MMK-1 stimulation) was “attenuated”. In addition, in the assay with human neutrophils [2] (NaF stimulation), the “superoxide anion release from neutrophils stimulated by sodium fluoride (NaF)” value is “attenuated”. Moreover, in the assay with human neutrophils [2] (PMA stimulation), the “superoxide anion release from neutrophils stimulated by PMA” value is recorded as “attenuated”. Besides, at Src, the “kinase activity of Src” value is on record as “inhibited”. For the same molecule, in the assay on Btk (Y223), the “phosphorylation of Btk (Y223)” value is reported as “significantly inhibited”. In assay [3], the “ROS scavenging activity in the cell-free xanthine and xanthine oxidase system” value is “did not exhibit”. Moreover, in the assay on BALB/c mice [4] (5 h after LPS spraying), the “MPO activity in the mouse lung tissues” value is “significantly ameliorated” and the “total protein levels in the mouse lung tissues” value is reported as “significantly ameliorated”. In the assay with BALB/c mice [4] (intratracheal LPS for 5 h), the “LPS-activated phosphorylation of Vav (p-Vav) in lung sections” value is listed as “attenuated”, the “LPS-induced NET formation (Ly6G+citH3+ cell accumulation) in lung” value is listed as “considerably reduced” and the “distortion of the pulmonary architecture (lung histology)” value was “significantly suppressed”. Also, the “intracellular ROS production, flow cytometry (DHR123 MFI)” value with human neutrophils [5] is on record as “significantly suppressed”.
